Values of other authors as cited in paper PMC9694544, “Conteltinib (CT-707) in patients with advanced ALK-positive non-small cell lung cancer: a multicenter, open-label, first-in-human phase 1 study” (BMC Medicine, 2022).
Where two headings read alike, the source gives them in different places.

What was measured:
[1] = system: patients with ALK-positive NSCLC; settings: cited from earlier work
ALK-positive NSCLC = settings: cited from earlier work
[2] = ALK TKI-naïve patients, at the dose around RP2D
[3] = patients who received crizotinib previously, at the dose around RP2D
[4] = patients who received crizotinib previously, at the dose-expansion phase
[5] = patients who received crizotinib previously, at MTD
[6] = ALK TKI-naïve patients, at RP2D
[7] = patients who received crizotinib previously, at RP2D

C[C@@H]1CN(C(=O)c2ccc(NC(=O)c3cc(O[C@H](C)c4c(Cl)ccc(F)c4Cl)c(N)nn3)cc2)C[C@H](C)N1 [ensartinib]
incidence of grade ≥ 3 TRAEs [1]: 23% | rash [1]: 56% | rash ([1]; grade ≥ 3): 12% | ORR (ALK-positive NSCLC; [2]): 80.0% | median PFS (ALK-positive NSCLC; [2]): 26.2 months | ORR (ALK-positive NSCLC; [3]): 69.0% | median PFS (ALK-positive NSCLC; [3]): 9.0 months

COc1cc(N2CCC3(CCN(C)CC3)CC2)ccc1Nc1ncc(Cl)c(Nc2ccccc2P(C)(C)=O)n1 [iruplinalkib]
incidence of grade ≥ 3 TRAEs [1]: 35% | rash [1]: 13% | ORR (ALK-positive NSCLC; ALK TKI-naïve patients, at the dose-expansion phase): 76.3% | ORR (ALK-positive NSCLC; [4]): 45.7% | median PFS (ALK-positive NSCLC; [4]): 6.9 months

Cc1cc(Nc2ncc(Cl)c(Nc3ccccc3S(=O)(=O)C(C)C)n2)c(OC(C)C)cc1C1CCNCC1 [ceritinib]
incidence of grade ≥ 3 TRAEs [1]: 49% | rash [1]: 13% | ORR (ALK-positive NSCLC; ALK TKI-naïve patients, at MTD): 59% | median PFS (ALK-positive NSCLC; ALK TKI-naïve patients, at MTD): 18.4 months | ORR (ALK-positive NSCLC; [5]): 56% | median PFS (ALK-positive NSCLC; [5]): 6.9 months

COc1cc(N2CCC(N3CCN(C)CC3)CC2)ccc1Nc1ncc(Cl)c(Nc2ccccc2P(C)(C)=O)n1 [brigatinib]
incidence of grade ≥ 3 TRAEs [1]: 36% | ORR (ALK-positive NSCLC; [6]): 100% | median PFS (ALK-positive NSCLC; [6]): 30.8 months | ORR (ALK-positive NSCLC; [7]): 72% | median PFS (ALK-positive NSCLC; [7]): 12.9 months
